# Measurements published in PubChem BioAssay AID1259407 (Chemical Carcinogenesis Research Information System (CCRIS), 2018).
# Calls of active or inactive are those of the source. How the calls were made is not given here.
# Test system: CCRIS mutagenicity, Ames/micronucleus/aberration tests
# Experiment: CCRIS mutagenicity studies
# [1] = Test System: AMES SALMONELLA TYPHIMURIUM, Strain/Indicator: TA97, Metabolic Activation: NONE, Method: PREINCUBATION
# [2] = Test System: AMES SALMONELLA TYPHIMURIUM, Strain/Indicator: TA1537, Metabolic Activation: NONE, Method: PREINCUBATION
# [3] = Test System: AMES SALMONELLA TYPHIMURIUM, Strain/Indicator: TA98, Metabolic Activation: NONE, Method: STANDARD PLATE
# [4] = Test System: AMES SALMONELLA TYPHIMURIUM, Strain/Indicator: TA100, Metabolic Activation: NONE, Method: STANDARD PLATE
smiles,measurement,setting,value
COC(=O)c1cc(Oc2ccc(Cl)cc2Cl)ccc1[N+](=O)[O-],mutagenic call,"Test System: AMES SALMONELLA TYPHIMURIUM, Strain/Indicator: YG1021, Metabolic Activation: NONE, Method: PREINCUBATION",inactive; negative
same,mutagenic call,"Test System: AMES SALMONELLA TYPHIMURIUM, Strain/Indicator: YG1021, Metabolic Activation: RAT, LIVER, S-9, PCB, Method: PREINCUBATION",inactive; negative
same,mutagenic call,"Test System: AMES SALMONELLA TYPHIMURIUM, Strain/Indicator: YG1026, Metabolic Activation: NONE, Method: PREINCUBATION",inactive; negative
same,mutagenic call,"Test System: AMES SALMONELLA TYPHIMURIUM, Strain/Indicator: YG1026, Metabolic Activation: RAT, LIVER, S-9, PCB, Method: PREINCUBATION",active; positive
Cc1ccc2cc3c(ccc4ccccc43)c3c2c1CC3O (stereo unspecified),mutagenic call,"Test System: CHINESE HAMSTER V-79, Strain/Indicator: V-79/8-AZAGUANINE, Metabolic Activation: RAT, LIVER, S-9, AROCLOR 1254, Method: STANDARD PLATE",active; positive
Cc1cccc(Nc2cc(Cl)nc(SCC(=O)NCCO)n2)c1C,mutagenic call,"Test System: AMES SALMONELLA TYPHIMURIUM, Strain/Indicator: TA98, Metabolic Activation: NONE",inactive; negative
same,mutagenic call,"Test System: AMES SALMONELLA TYPHIMURIUM, Strain/Indicator: TA98, Metabolic Activation: RAT, LIVER, S-9, AROCLOR 1254",inactive; negative
same,mutagenic call,"Test System: AMES SALMONELLA TYPHIMURIUM, Strain/Indicator: TA102, Metabolic Activation: NONE",inactive; negative
same,mutagenic call,"Test System: AMES SALMONELLA TYPHIMURIUM, Strain/Indicator: TA102, Metabolic Activation: RAT, LIVER, S-9, AROCLOR 1254",inactive; negative
same,mutagenic call,"Test System: AMES SALMONELLA TYPHIMURIUM, Strain/Indicator: TA104, Metabolic Activation: NONE",inactive; negative
same,mutagenic call,"Test System: AMES SALMONELLA TYPHIMURIUM, Strain/Indicator: TA104, Metabolic Activation: RAT, LIVER, S-9, AROCLOR 1254",inactive; negative
same,mutagenic call,"Test System: UDS RAT HEPATOCYTES, Strain/Indicator: THY INCORP, Metabolic Activation: NONE, Method: LIQUID SCINTILLATION COUNTING",active; positive
CCCCCCCCCc1ccc(O)cc1,mutagenic call,[1],inactive; negative
same,mutagenic call,"Test System: AMES SALMONELLA TYPHIMURIUM, Strain/Indicator: TA97, Metabolic Activation: S-9, Method: PREINCUBATION",inactive; negative
same,mutagenic call,"Test System: AMES SALMONELLA TYPHIMURIUM, Strain/Indicator: TA98, Metabolic Activation: RAT, LIVER, S-9, KC 500, Method: PREINCUBATION",inactive; negative
same,mutagenic call,"Test System: AMES SALMONELLA TYPHIMURIUM, Strain/Indicator: TA98, Metabolic Activation: RAT, LIVER, S-9, SODIUM PHENOBARBITAL AND 5,6-BENZOFLAVONE, Method: PREINCUBATION",inactive; negative
same,mutagenic call,"Test System: AMES SALMONELLA TYPHIMURIUM, Strain/Indicator: TA98, Metabolic Activation: S-9, Method: PREINCUBATION",inactive; negative
same,mutagenic call,"Test System: AMES SALMONELLA TYPHIMURIUM, Strain/Indicator: TA100, Metabolic Activation: RAT, LIVER, S-9, KC 500, Method: PREINCUBATION",inactive; negative
same,mutagenic call,"Test System: AMES SALMONELLA TYPHIMURIUM, Strain/Indicator: TA100, Metabolic Activation: RAT, LIVER, S-9, SODIUM PHENOBARBITAL AND 5,6-BENZOFLAVONE, Method: PREINCUBATION",inactive; negative
same,mutagenic call,"Test System: AMES SALMONELLA TYPHIMURIUM, Strain/Indicator: TA100, Metabolic Activation: S-9, Method: PREINCUBATION",inactive; negative
same,mutagenic call,"Test System: AMES SALMONELLA TYPHIMURIUM, Strain/Indicator: TA102, Metabolic Activation: RAT, LIVER, S-9, SODIUM PHENOBARBITAL AND 5,6-BENZOFLAVONE, Method: PREINCUBATION",inactive; negative
same,mutagenic call,"Test System: AMES SALMONELLA TYPHIMURIUM, Strain/Indicator: TA102, Metabolic Activation: S-9, Method: PREINCUBATION",inactive; negative
same,mutagenic call,"Test System: AMES SALMONELLA TYPHIMURIUM, Strain/Indicator: TA104, Metabolic Activation: NONE, Method: PREINCUBATION",inactive; negative
same,mutagenic call,"Test System: AMES SALMONELLA TYPHIMURIUM, Strain/Indicator: TA104, Metabolic Activation: RAT, LIVER, S-9, SODIUM PHENOBARBITAL AND 5,6-BENZOFLAVONE, Method: PREINCUBATION",inactive; negative
same,mutagenic call,"Test System: AMES SALMONELLA TYPHIMURIUM, Strain/Indicator: TA104, Metabolic Activation: S-9, Method: PREINCUBATION",inactive; negative
same,mutagenic call,"Test System: AMES SALMONELLA TYPHIMURIUM, Strain/Indicator: TA1535, Metabolic Activation: NONE, Method: PREINCUBATION",inactive; negative
same,mutagenic call,"Test System: AMES SALMONELLA TYPHIMURIUM, Strain/Indicator: TA1535, Metabolic Activation: RAT, LIVER, S-9, KC 500, Method: PREINCUBATION",inactive; negative
same,mutagenic call,"Test System: AMES SALMONELLA TYPHIMURIUM, Strain/Indicator: TA1535, Metabolic Activation: RAT, LIVER, S-9, SODIUM PHENOBARBITAL AND 5,6-BENZOFLAVONE, Method: PREINCUBATION",inactive; negative
same,mutagenic call,[2],inactive; negative
same,mutagenic call,"Test System: AMES SALMONELLA TYPHIMURIUM, Strain/Indicator: TA1537, Metabolic Activation: RAT, LIVER, S-9, KC 500, Method: PREINCUBATION",inactive; negative
same,mutagenic call,"Test System: AMES SALMONELLA TYPHIMURIUM, Strain/Indicator: TA1537, Metabolic Activation: RAT, LIVER, S-9, SODIUM PHENOBARBITAL AND 5,6-BENZOFLAVONE, Method: PREINCUBATION",inactive; negative
same,mutagenic call,"Test System: AMES SALMONELLA TYPHIMURIUM, Strain/Indicator: TA1538, Metabolic Activation: NONE, Method: PREINCUBATION",inactive; negative
same,mutagenic call,"Test System: AMES SALMONELLA TYPHIMURIUM, Strain/Indicator: TA1538, Metabolic Activation: RAT, LIVER, S-9, KC 500, Method: PREINCUBATION",inactive; negative
same,mutagenic call,"Test System: E. COLI, Strain/Indicator: WP2UVRA/PKM101, Metabolic Activation: NONE, Method: PREINCUBATION",inactive; negative
same,mutagenic call,"Test System: E. COLI, Strain/Indicator: WP2UVRA/PKM101, Metabolic Activation: RAT, LIVER, S-9, SODIUM PHENOBARBITAL AND 5,6-BENZOFLAVONE, Method: PREINCUBATION",inactive; negative
same,mutagenic call,"Test System: E. COLI, Strain/Indicator: WP2 UVRA, Metabolic Activation: NONE, Method: PREINCUBATION",inactive; negative
same,mutagenic call,"Test System: E. COLI, Strain/Indicator: WP2UVRA, Metabolic Activation: NONE, Method: PREINCUBATION",inactive; negative
same,mutagenic call,"Test System: E. COLI, Strain/Indicator: WP2 UVRA, Metabolic Activation: RAT, LIVER, S-9, KC 500, Method: PREINCUBATION",inactive; negative
same,mutagenic call,"Test System: E. COLI, Strain/Indicator: WP2UVRA, Metabolic Activation: RAT, LIVER, S-9, SODIUM PHENOBARBITAL AND 5,6-BENZOFLAVONE, Method: PREINCUBATION",inactive; negative
CN(C)c1ccc(/C=C/c2ccc([N+](=O)[O-])cc2)cc1,mutagenic call,"Test System: AMES SALMONELLA TYPHIMURIUM, Strain/Indicator: TA98, Metabolic Activation: HAMSTER, LIVER, S-9, AROCLOR 1254 (10%), Method: STANDARD PLATE",active; positive
same,mutagenic call,[3],inactive; negative
same,mutagenic call,"Test System: AMES SALMONELLA TYPHIMURIUM, Strain/Indicator: TA98, Metabolic Activation: RAT, LIVER, S-9, AROCLOR 1254 (10%), Method: STANDARD PLATE",active; positive
same,mutagenic call,"Test System: AMES SALMONELLA TYPHIMURIUM, Strain/Indicator: TA100, Metabolic Activation: HAMSTER, LIVER, S-9, AROCLOR 1254 (10%), Method: STANDARD PLATE",active; positive
same,mutagenic call,[4],inactive; negative
same,mutagenic call,"Test System: AMES SALMONELLA TYPHIMURIUM, Strain/Indicator: TA100, Metabolic Activation: RAT, LIVER, S-9, AROCLOR 1254 (10%), Method: STANDARD PLATE",active; positive
same,mutagenic call,"Test System: MOUSE LYMPHOMA, Strain/Indicator: L5178Y (TK+/TK-), Metabolic Activation: NONE, Method: SUSPENSION/PLATE",inactive; negative
same,mutagenic call,"Test System: MOUSE LYMPHOMA, Strain/Indicator: L5178Y (TK+/TK-), Metabolic Activation: RAT, LIVER, S-9, AROCLOR 1254, Method: SUSPENSION/PLATE",active; positive. reevaluation of results: positive
Cc1c(C)c2c(Cl)c3ccccc3nc2c2ccccc12,mutagenic call,[1],active; positive
same,mutagenic call,"Test System: AMES SALMONELLA TYPHIMURIUM, Strain/Indicator: TA97, Metabolic Activation: NONE, Method: STANDARD PLATE",active; positive
same,mutagenic call,"Test System: AMES SALMONELLA TYPHIMURIUM, Strain/Indicator: TA98, Metabolic Activation: NONE, Method: PREINCUBATION",active; positive
same,mutagenic call,[2],active; positive
CN1CCN(c2ccc3nc(CCCCCCc4ccc5nc(-c6ccc(N(CCCl)CCCl)cc6)[nH]c5c4)[nH]c3c2)CC1,mutagenic call,[3],inactive; negative
same,mutagenic call,[4],inactive; negative
same,mutagenic call,"Test System: AMES SALMONELLA TYPHIMURIUM, Strain/Indicator: TA102, Metabolic Activation: NONE, Method: STANDARD PLATE",inactive; negative
c1ccc2c(OC[C@H]3CO3)cccc2c1,mutagenic call,[4],active; positive
c1cc(OCC2CO2)ccc1Cc1ccc(OCC2CO2)cc1 (stereo unspecified),mutagenic call,"End Point: In vitro micronucleus, Test System: HepG2 cells, Metabolic Activation: None",inactive; negative
